Test results taken from article PMC9248040 (RSC Advances, 2022).

What was measured:
Assay type in all cases: biochemical
BACE1 (β-secretase) = BACE1 (β-secretase) (Homo sapiens, UniProt P56817); assay: fluorescence kit substrate-cleavage inhibition assay
Aβ1–42 (amyloid-β 1-42) = Aβ1–42 (amyloid-β 1-42) (Homo sapiens, UniProt P05067); assay: fluorescent-probe fibril aggregation inhibition kit assay
[1] = target: T1, MAO-B (monoamine oxidase-B) (Homo sapiens, UniProt P27338); assay: fluorometric OxiRed-probe kit inhibition assay
T1 sequence (P27338 2-520): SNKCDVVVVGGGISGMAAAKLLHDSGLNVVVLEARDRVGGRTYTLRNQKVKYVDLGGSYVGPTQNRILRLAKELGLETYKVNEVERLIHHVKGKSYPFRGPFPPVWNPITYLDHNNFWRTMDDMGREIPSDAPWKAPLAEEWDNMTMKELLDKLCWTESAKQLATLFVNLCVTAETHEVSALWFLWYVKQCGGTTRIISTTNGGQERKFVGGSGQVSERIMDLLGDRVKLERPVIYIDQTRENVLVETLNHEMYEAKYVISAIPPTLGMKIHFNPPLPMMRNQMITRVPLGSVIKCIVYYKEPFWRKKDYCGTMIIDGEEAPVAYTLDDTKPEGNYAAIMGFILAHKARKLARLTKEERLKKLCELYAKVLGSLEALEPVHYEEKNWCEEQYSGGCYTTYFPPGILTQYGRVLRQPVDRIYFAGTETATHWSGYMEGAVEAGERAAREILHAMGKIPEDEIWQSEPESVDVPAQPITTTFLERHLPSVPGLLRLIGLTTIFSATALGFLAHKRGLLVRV

Sequence of BACE1 (β-secretase) (P56817 46-457): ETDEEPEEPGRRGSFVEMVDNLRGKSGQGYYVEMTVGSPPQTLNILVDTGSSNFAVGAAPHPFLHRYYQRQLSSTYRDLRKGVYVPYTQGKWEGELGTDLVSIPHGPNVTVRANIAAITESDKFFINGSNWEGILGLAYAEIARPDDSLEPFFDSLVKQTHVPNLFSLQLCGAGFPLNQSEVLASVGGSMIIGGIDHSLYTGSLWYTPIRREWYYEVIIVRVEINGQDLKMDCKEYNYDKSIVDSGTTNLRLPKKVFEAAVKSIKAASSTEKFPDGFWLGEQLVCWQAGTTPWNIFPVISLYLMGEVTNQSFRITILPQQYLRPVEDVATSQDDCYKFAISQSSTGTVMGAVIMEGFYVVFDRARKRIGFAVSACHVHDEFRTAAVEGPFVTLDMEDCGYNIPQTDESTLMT
Sequence of Aβ1–42 (amyloid-β 1-42) (P05067 672-713): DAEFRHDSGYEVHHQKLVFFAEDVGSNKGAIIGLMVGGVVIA

SMILES | IC50 (BACE1 (β-secretase)) [µM] | IC50 (Aβ1–42 (amyloid-β 1-42)) [µM] | IC50 [1] [µM]
COc1cc(/C=C/C(=O)NCCc2ccc(O)cc2)ccc1O [compound 2, N-trans-feruloyltyramine] | 37 | 3.83 | 7.15
COc1cc(/C=C/C(=O)NCCc2ccc(O)c(OC)c2)ccc1O [compound 1, N-trans-feruloyl-3-methoxytyramine] | 15.7 | 0.874 | 2.07
O=C(/C=C/c1ccc(O)c(O)c1)NCCc1ccc(O)cc1 [compound 6, N-trans-caffeoyltyramine] | 34.1 | 20.2 | 8.75

The remaining lines, values ahead:

IC50 (BACE1 (β-secretase)) [µM] | IC50 (Aβ1–42 (amyloid-β 1-42)) [µM] | IC50 [1] [µM] | SMILES
110 | 39.8 | 18 | COc1cc(/C=C/C(=O)NC[C@@H](O)c2ccc(O)cc2)ccc1O [compound 4, S-(−)-N-trans-feruloyloctopamine]
16.4 | 7.63 | 4.43 | COc1cc(/C=C/C(=O)NC[C@@H](OC)c2ccc(O)cc2)ccc1O [compound 7, S-(−)-3-(4-hydroxy-3-methoxyphenyl)-N-[2-(4-hydroxyphenyl)-methoxyethyl]acrylamide]
